Experimental data taken from patent US8178579B2, “Dioxanes and uses thereof” (President and Fellows of Harvard College, priority 2001, dated 2012).
Entries after “also recorded” stand apart in the source; their conditions may differ.

Tested on: microtubules in A549 cells
Experiment: microtubule stability to nocodazole, cold or calcium depolymerization and repolymerization
Format: cell-based, human
Settings: tubacin 2 μM
Protocol: Detection of acetylated α-tubulin and acetylated histones by immunofluorescence was performed as described in Example 6 above. For determining microtubule stability, A549 cells were treated as indicated, fixed in glutaraldehyde, and stained for acetylated α-tubulin and total α-tubulin in antibody dilution buffer (ADB, Tris-buffered saline (TBS), 0.15 M NaCl, 0.02 M Tris-Cl, pH 7.4, with 2% bovine serum albumin and 0.1% Triton-X 100). For cold-depolymerization, cells were incubated at 4° C. or 37° C. for an additional 90 minutes before fixation. For calcium depolymerization, cells were incubated at 37° C. for 10 minutes in a microtubule-stabilizing buffer (0.2% NP-40, 5 mM MgCl2, 2 mM EGTA, 2 M glycerol, 100 mM PIPES, pH 6.8) with and without the addition of CaCl2 (2 mM) before glutaraldehyde fixation. For co-localization experiments, biotubacin (50 μM) treated A549 cells were fixed in 3.7% formaldehyde in TBS and processed as for detecting acetylated α-tubulin (See Example 6 above) with biotubacin detected using streptavidin-TR (1:500). HDAC6 was detected using a rabbit polyclonal antibody (1:250-1:750; C.M.G., unpublished data) under the conditions used to detect acetylated α-tubulin (See Example 6 above). Filamentous actin in HT-1080 cells was detected using TR-conjugated phalloidin (1 μg/mL), and depolymerized actin using FITC-conjugated deoxyribonuclease (10 μg/mL), following fixation in 3.7% formaldehyde in TBS. p58 (1:100) in NIH-3T3 cells was detected after fixation in 3.7% formaldehyde in TBS. Images for these experiments were collected on a Zeiss LSM510 confocal scanning laser microscope at the appropriate wavelengths using the accompanying software and processed with Adobe Photoshop. Deconvoluted serial images of TSA and DMSO treated A549 cells were obtained by taking sections (8μ) on a Zeiss Axioskop 2 microscope using an AxioCam camera and the accompanying software. Rat hippocampal neuronal cultures were fixed at room temperature for 15 min in phosphate-buffered saline (PBS) containing 4% paraformaldehyde. […]

Q: What does the source list for O=C(CCCCCCC(=O)Nc1ccc([C@@H]2OC(c3ccc(CO)cc3)C[C@H](CSc3nc(-c4ccccc4)c(-c4ccccc4)o3)O2)cc1)NO (some centres unmarked) [tubacin]?
A: polymerization of microtubules after removal of nocodazole (ITSA1 50 μM): neither tubacin nor ITSA1 (50 μM; 30 minutes) prevents the repolymerization of microtubules; also recorded: neither tubacin nor ITSA1 prevented the polymerization of microtubules; stability of microtubules to depolymerization (nocodazole 332 nM, cold 4 °C 90 min, or 2 mM CaCl2): No effect of tubacin (2 μM) pre-treatment (4 h) on the stability of microtubules to nocodazole; also recorded: Microtubule depolymerization by nocodazole (332 nM; 5 h) is dominant to the effects of tubacin; also recorded: No effect of tubacin on the stability of microtubules to cold-depolymerization; also recorded: no stabilization of microtubules to any of the depolymerizing conditions tested
